Data set [1] has as its system HEK293. Kind of data set: Cytotoxicity against HEK293 cells assessed as reduction in cell viability measured after 48 hrs by MTT assay. The data set is classed as cell-based. To be noted: Homo sapiens, HEK293, 48 h.
Data set [2] has as its system HepG2. Kind of data set: Cytotoxicity against human HepG2 cells assessed as reduction in cell viability measured after 48 hrs by MTT assay. The data set is classed as cell-based. To be noted: HepG2, 48 h.
A short description of data set [3]: Inhibition of Escherichia coli recombinant his-tagged DHDPS using (S)-aspartate-semialdehyde as a substrate preincubated for 12 mins followed by substrate addition by UV-Vis spectrophotometer based coupled DHDPS-DHDPR assay.
Data set [4] can be described thus: Aqueous solubility of the compound. It is filed as physicochemical. As to conditions: buffer.
A short description of data set [5]: Inhibition of Campylobacter jejuni DHDPS using ASA as a substrate in presence of NADPH by DHDPS-DHDPR coupled assay.

These results are taken from ChEMBL document CHEMBL4840371 (Bioorg Med Chem, 2021).

pEC50, pIC50, pKi: −log10 of the molar value.

What is called pEC50 is the EC50 on a negative log10 scale, so that one unit is a factor of ten. What is called pIC50 is −log10 of the IC50, conventionally taken in molar units. With `O=C(O)CN1C(=O)S/C(=C\c2ccc3ccccc3c2)C1=O`, the pEC50 in data set [1] and in data set [2] was 3.70 in each case. Also, in data set [3], the pIC50 is 4.12.

The term solubility denotes how much of the substance goes into solution per volume. With `CCOC(=O)CSC1=NC(=O)/C(=C/c2ccc(OC)cc2)S1`, the solubility result in data set [4] is recorded as “Insoluble”.

On to `O=C(O)CN1C(=O)S/C(=C\c2cccnc2)C1=O`, for which, in data set [3], the pIC50 was 3.86.

Regarding `COc1ccc(/C=C2\SC(=S)N(CC(=O)O)C2=O)cc1`, the pEC50 in data set [1] and in data set [2] was 3.70 in each case. Moreover, the pIC50 in data set [3] was 3.27.

On to `O=C(O)CN1C(=O)S/C(=C\c2ccc(OCc3ccccc3)cc2)C1=O`, for which the pEC50 in data set [1] and in data set [2] was 3.70 each time. Besides, in data set [3], the pIC50 was 4.15.

Consider `COc1cccc(/C=C2\SC(=O)N(CC(=O)O)C2=O)c1`, for which the pIC50 in data set [3] was 3.96.

With `COc1ccc(/C=C2\NC(=S)NC2=O)cc1`, the pIC50 in data set [3] is 3.49.

Turning to `COc1ccc(/C=C2\SC(=S)NC2=O)cc1`, the pIC50 in data set [3] is below 3.30.

In the case of `Cc1ccc(/C=C2\SC(=O)N(CC(=O)O)C2=O)cc1`, the pIC50 in data set [3] was 4.10.

With `COc1ccc(/C=C2\SC(=O)N(CC(=O)O)C2=O)cc1`, the pEC50 in data set [1] and in data set [2] was below 3.30 each time. The pIC50 in data set [3] was 4.33.

As for `CN(C)c1ccc(/C=C2\SC(=O)N(CC(=O)O)C2=O)cc1`, the pIC50 in data set [3] is below 3.30.

On to `COc1ccc(/C=C2\NC(=O)NC2=O)cc1`, for which, in data set [3], the pIC50 is 3.91.

Regarding `COc1ccc(/C=C2\SC(=O)N(CC(N)=O)C2=O)cc1`, the solubility in data set [4] (read-out: solubility) was below 31 µM.

As a reminder, the pKi is the negative decadic logarithm of the Ki, by convention in mol/L. In the case of `NCCCC[C@@](N)(CC[C@](N)(CCCCN)C(=O)O)C(=O)O`, the pKi in data set [5] is 6.85.

As to `COc1ccc(/C=C2\SC(=O)N(CC(=O)O)C2=O)cc1OC`, the pIC50 in data set [3] was 3.94.

On to `CCOc1ccc(/C=C2\SC(=O)N(CC(=O)O)C2=O)cc1`, for which, in data set [3], the pIC50 is 4.14.

As to `O=C(O)CN1C(=O)S/C(=C\c2ccccc2Cl)C1=O`, the pIC50 in data set [3] is 3.86.

Turning to `O=C(O)CN1C(=O)S/C(=C\c2ccc(C(=O)O)cc2)C1=O`, the pIC50 in data set [3] was 4.15.

`O=C(O)CN1C(=O)S/C(=C\c2cccc3ccccc23)C1=O`: the pEC50 in data set [1] and in data set [2] was below 3.30 in each case. For the same compound, in data set [3], the pIC50 is 4.01.

Take `O=C(O)CN1C(=O)S/C(=C\c2ccccn2)C1=O`: in data set [3], the pIC50 is 4.10.

For the compound `COc1ccc(/C=C2\SC(=O)N(CC#N)C2=O)cc1`, the solubility in data set [4] (read-out: solubility) is below 250 µM.

As for `COc1ccc(/C=C2\SC(=O)N(CCCC(=O)O)C2=O)cc1`, the pIC50 in data set [3] was 4.17.

Take `COc1ccc(/C=C2\NC(=O)N(CC(=O)O)C2=O)cc1`: the pEC50 in data set [1] and in data set [2] was below 3.30 each time. Moreover, the pIC50 in data set [3] was 4.18.

As for `O=C(O)CN1C(=O)S/C(=C\c2ccccc2)C1=O`, the pIC50 in data set [3] is 4.10.

In the case of `O=C(O)CN1C(=O)S/C(=C\c2ccc(F)cc2)C1=O`, the pIC50 in data set [3] was 4.04.

For the compound `O=C(O)CN1C(=O)S/C(=C\c2ccc(OC(F)(F)F)cc2)C1=O`, in data set [3], the pIC50 is 4.01.

With `N#Cc1ccc(/C=C2\SC(=O)N(CC(=O)O)C2=O)cc1`, the pIC50 in data set [3] was 4.10.

In the case of `O=C(O)CN1C(=O)S/C(=C\c2ccc(O)cc2O)C1=O`, in data set [3], the pIC50 is 3.79.

In the case of `COc1ccc(CC2SC(=O)N(CC(=O)O)C2=O)cc1` (stereo not given), in data set [3], the negative logarithm of the IC50 (pIC50) was below 3.30.

Take `CC(=O)Nc1ccc(/C=C2\SC(=O)N(CC(=O)O)C2=O)cc1`: in data set [3], the pIC50 is 4.17.

With `O=C(O)CN1C(=O)S/C(=C\c2c[nH]cn2)C1=O`, the pIC50 in data set [3] was 4.03.

For the compound `COc1ccc(/C=C2\SC(=O)N(Cc3nnn[nH]3)C2=O)cc1`, in data set [3], the pIC50 is 4.05.

As for `CSc1ccc(/C=C2\SC(=O)N(CC(=O)O)C2=O)cc1`, in data set [3], the pIC50 was 3.90.

As for `O=C(O)CN1C(=O)S/C(=C\c2ccc(Br)cc2)C1=O`, the pIC50 in data set [3] was 4.13.

With `O=C(O)CN1C(=O)S/C(=C\c2ccc(O)c(Cl)c2)C1=O`, the pIC50 in data set [3] is 3.50.

As to `O=C(O)CN1C(=O)S/C(=C\c2ccncc2)C1=O`, in data set [3], the pIC50 is 4.05.

For `O=C(O)CN1C(=O)S/C(=C\c2ccc3ccccc3n2)C1=O`, in data set [3], the pIC50 is 3.96.

In the case of `O=C(O)CN1C(=O)S/C(=C\c2ccc(C(F)(F)F)cc2)C1=O`, in data set [3], the pIC50 is 3.91.

In the case of `COc1ccc(/C=C2\SC(=O)N(CCC(=O)O)C2=O)cc1`, in data set [3], the pIC50 was below 3.60.

As to `O=C(O)CN1C(=O)S/C(=C\c2ccc(O)cc2)C1=O`, the pIC50 in data set [3] was 3.99.

On to `COc1ccc(/C=C2\SC(=O)N(CC(=O)O)C2=O)cn1`, for which the pEC50 in data set [1] and in data set [2] was below 3.30 each time. Also, the pIC50 in data set [3] was 4.34.

For `O=C(O)CN1C(=O)S/C(=C\c2cccc(Cl)c2)C1=O`, the pIC50 in data set [3] is 3.92.

Regarding `O=C(O)CN1C(=O)S/C(=C\c2cccs2)C1=O`, the pEC50 in data set [1] and in data set [2] was below 3.30 in each case. In data set [3], the pIC50 was 4.14.

In the case of `COc1cccc(/C=C2\SC(=O)N(CC(=O)O)C2=O)c1OC`, in data set [3], the pIC50 was 3.97.

`Nc1ccc(/C=C2\SC(=O)N(CC(=O)O)C2=O)cc1`: in data set [3], the pIC50 is 3.82.

For `COc1ccc(/C=C2\NC(=S)N(CC(=O)O)C2=O)cc1`, the pEC50 in data set [1] and in data set [2] was below 3.30 throughout. Moreover, in data set [3], the pIC50 was 3.65.

As to `COc1ccccc1/C=C1\SC(=O)N(CC(=O)O)C1=O`, the pIC50 in data set [3] was 4.15.

For the compound `O=C(O)CN1C(=O)S/C(=C\c2ccc(Cl)cc2)C1=O`, the pIC50 in data set [3] was 4.08.

Regarding `O=C(O)CN1C(=O)S/C(=C\c2ccsc2)C1=O`, the pEC50 in data set [1] and in data set [2] was below 3.30 each time. The pIC50 in data set [3] was 4.06.

As to `O=C(O)CN1C(=O)S/C(=C\c2ccc(=O)[nH]c2)C1=O`, the pIC50 in data set [3] was 4.23.

With `COc1ccc(/C=C2\SC(=N)NC2=O)cc1`, the pIC50 in data set [3] is 3.81.

For `COc1ccc(/C=C2\SC(=O)NC2=O)cc1`, the values for the pEC50 in data set [1] and in data set [2] were 3.76 and 3.70, respectively. The pIC50 in data set [3] was 4.15.

As for `COc1ccc(C=C2SC(=O)N(CC(=O)O)C2=O)cc1` (mixture of isomers), the pIC50 in data set [3] was 4.41.
